The values that follow come from US8623857B2, “N-phenyl imidazole carboxamide inhibitors of 3-phosphoinositide-dependent protein kinase-1” (Merck Sharp & Dohme Corp., priority 2010, dated 2014).

The test deals with T1, recombinant human PDK1 (Homo sapiens, UniProt O15530).
T1 construct: containing amino acids 51-556 of the human PDK1 enzyme; made in house; host or cells: Sf9 insect cells
T1 sequence (O15530 51-556): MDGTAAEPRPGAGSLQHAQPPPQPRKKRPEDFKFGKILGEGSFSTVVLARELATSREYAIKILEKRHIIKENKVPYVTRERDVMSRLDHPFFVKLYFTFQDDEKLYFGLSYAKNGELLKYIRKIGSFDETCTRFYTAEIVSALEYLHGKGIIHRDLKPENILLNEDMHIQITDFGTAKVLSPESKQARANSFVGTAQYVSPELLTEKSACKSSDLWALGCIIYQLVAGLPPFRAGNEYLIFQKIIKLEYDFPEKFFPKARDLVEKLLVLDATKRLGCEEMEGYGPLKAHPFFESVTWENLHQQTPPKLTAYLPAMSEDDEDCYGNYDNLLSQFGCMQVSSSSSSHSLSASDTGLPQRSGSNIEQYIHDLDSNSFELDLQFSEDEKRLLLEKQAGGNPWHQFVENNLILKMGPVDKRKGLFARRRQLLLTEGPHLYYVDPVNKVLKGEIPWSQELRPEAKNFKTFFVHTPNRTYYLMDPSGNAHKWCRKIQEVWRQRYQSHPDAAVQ
Kind of test: PDK1 IMAP fluorescence polarization assay (inhibition of peptide substrate phosphorylation). Format: biochemical.

The mark [1] stands for this setting: Table 6, 10 nM PDK1 enzyme, 100 nM peptide substrate, 100 nM PIFtide, 2.5 uM ATP, 1.5 hours.

As to `CNc1nc(-c2c[nH]c(C(=O)Nc3ccccc3N3CCNCC3)n2)cc(N2CC(C(=O)NC3CCCCC3)CCC2C)n1` (racemic) [Compound 102, N-cyclohexyl-6-methyl-1-(2-(methylamino)-6-(2-(2-(piperazin-1-yl)phenylcarbamoyl)-1H-imidazol-4-yl)pyrimidin-4-yl)piperidine-3-carboxamide], the IC50 (Table 10, compounds 97-132) lay within 1 to 50 nM.

Regarding `CNc1nc(-c2c[nH]c(C(=O)Nc3ccccc3N3CCNCC3)n2)cc(N2C[C@@H](C(=O)NC3CCCCC3)CC[C@@H]2C)n1` (racemic) [Compound 104, N-cyclohexyl-6-methyl-1-(2-(methylamino)-6-(2-(2-(piperazin-1-yl)phenylcarbamoyl)-1H-imidazol-4-yl)pyrimidin-4-yl)piperidine-3-carboxamide], the IC50 (Table 10, compounds 97-132) is 51 to 250 nM.

On to `CNc1nc(-c2c[nH]c(C(=O)Nc3ccccc3OC3CCNCC3)n2)cc(N2CC(C(=O)NC3CCCCC3)CCC2C)n1` (racemic) [Compound 108, N-cyclohexyl-6-methyl-1-(2-(methylamino)-6-(2-(2-(piperidin-4-yloxy)phenylcarbamoyl)-1H-imidazol-4-yl)pyrimidin-4-yl)piperidine-3-carboxamide], for which, for the setting “Table 10, compounds 97-132”, the 50% inhibitory concentration (IC50) fell in the range of 1 to 50 nM.

Consider `CNc1nc(-c2c[nH]c(C(=O)Nc3cccc(F)c3N3CCOCC3)n2)cc(N2CC(C(=O)NC3CCCCC3)CCC2C)n1` (racemic) [Compound 109, N-cyclohexyl-1-(6-(2-(3-fluoro-2-morpholinophenylcarbamoyl)-1H-imidazol-4-yl)-2-(methylamino)pyrimidin-4-yl)-6-methylpiperidine-3-carboxamide], for which the IC50 (Table 10, compounds 97-132) lay within 1 to 50 nM.

For `CNc1nc(-c2c[nH]c(C(=O)Nc3cccc(F)c3N3CCO[C@@H](CN)C3)n2)cc(N2CC(C(=O)NC3CCCCC3)CCC2C)n1` (mixture of isomers) [Compound 110, 1-(6-(2-(2-((S)-2-(aminomethyl)morpholino)-3-fluorophenylcarbamoyl)-1H-imidazol-4-yl)-2-(methylamino)pyrimidin-4-yl)-N-cyclohexyl-6-methylpiperidine-3-carboxamide], under “Table 10, compounds 97-132”, the IC50 was 1 to 50 nM.

`CNc1nc(-c2c[nH]c(C(=O)Nc3cccc(F)c3N3CCO[C@H](CN)C3)n2)cc(N2CC(C(=O)NC3CCCCC3)CCC2C)n1` (mixture of isomers) [Compound 111, 1-(6-(2-(2-((R)-2-(aminomethyl)morpholino)-3-fluorophenylcarbamoyl)-1H-imidazol-4-yl)-2-(methylamino)pyrimidin-4-yl)-N-cyclohexyl-6-methylpiperidine-3-carboxamide]: the half-inhibitory concentration (IC50) (Table 10, compounds 97-132) is 1 to 50 nM.

`CC1CCC(C(=O)NC2CCCCC2)CN1c1cc(-c2c[nH]c(C(=O)Nc3cc(N)ccc3N3CCC4(CCCNC4)CC3)n2)nc(N)n1` (racemic) [Compound 112, 1-(2-amino-6-(2-(5-amino-2-(2,9-diazaspiro[5.5]undecan-9-yl)phenylcarbamoyl)-1H-imidazol-4-yl)pyrimidin-4-yl)-N-cyclohexyl-6-methylpiperidine-3-carboxamide]: under “Table 10, compounds 97-132”, the half-inhibitory concentration (IC50) was 1 to 50 nM.

Regarding `CNc1nc(-c2c[nH]c(C(=O)Nc3ccccc3N3CCC4(CC3)OCCO4)n2)cc(N2CC(C(=O)NC3CCCCC3)CCC2C)n1` (racemic) [Compound 113], the IC50 (Table 10, compounds 97-132) fell in the range of 1 to 50 nM.

`CNc1nc(-c2c[nH]c(C(=O)Nc3cccc(F)c3N3CCC[C@@H](N)C3)n2)cc(N2CC(C(=O)NC3CCCCC3)CCC2C)n1` (mixture of isomers) [Compound 114, 1-(6-(2-(2-((R)-3-aminopiperidin-1-yl)-3-fluorophenylcarbamoyl)-1H-imidazol-4-yl)-2-(methylamino)pyrimidin-4-yl)-N-cyclohexyl-6-methylpiperidine-3-carboxamide]: the IC50 (Table 10, compounds 97-132) fell in the range of 1 to 50 nM.

As for `CNc1nc(-c2c[nH]c(C(=O)Nc3cccc(F)c3N3CCC4(CC3)CNC4)n2)cc(N2CC(C(=O)NC3CCCCC3)CCC2C)n1` (racemic) [Compound 118, N-cyclohexyl-1-(6-(2-(3-fluoro-2-(2,7-diazaspiro[3.5]nonan-7-yl)phenylcarbamoyl)-1H-imidazol-4-yl)-2-(methylamino)pyrimidin-4-yl)-6-methylpiperidine-3-carboxamide], where the note is “Table 10, compounds 97-132”, the half-inhibitory concentration (IC50) fell in the range of 1 to 50 nM.

Turning to `CNc1nc(-c2c[nH]c(C(=O)Nc3cccc(F)c3N3CCC4(CCNC4)CC3)n2)cc(N2CC(C(=O)NC3CCCCC3)CCC2C)n1` (racemic) [Compound 119, N-cyclohexyl-1-(6-(2-(3-fluoro-2-(2,8-diazaspiro[4.5]decan-8-yl)phenylcarbamoyl)-1H-imidazol-4-yl)-2-(methylamino)pyrimidin-4-yl)-6-methylpiperidine-3-carboxamide], the 50% inhibitory concentration (IC50) (Table 10, compounds 97-132) was 1 to 50 nM.

For the compound `CNc1nc(-c2c[nH]c(C(=O)Nc3cccc(F)c3N3CCOC[C@H]3C)n2)cc(N2CC(C(=O)NC3CCCCC3)CCC2C)n1` (mixture of isomers) [Compound 122, N-cyclohexyl-1-(6-(2-(3-fluoro-2-((R)-3-methylmorpholino)phenylcarbamoyl)-1H-imidazol-4-yl)-2-(methylamino)pyrimidin-4-yl)-6-methylpiperidine-3-carboxamide], the IC50 (Table 10, compounds 97-132) lay within 1 to 50 nM.

Take `Nc1ccc(N2CCC[C@@H](N)C2)c(NC(=O)c2ncc[nH]2)c1` [Compound 1, N-[5-amino-2-(3(R)-amino-1-piperidinyl)phenyl]-1H-imidazole-2-carboxamide]: the IC50 under setting [1] was in the range of 51 to 250 nM.

As to `CNC1(C(N)=O)CCN(c2ccc(N)cc2NC(=O)c2ncc[nH]2)CC1` [Compound 2, 1-[4-amino-2-[(1H-imidazol-2-ylcarbonyl)amino]phenyl]-4-(methylamino)-4-piperidinecarboxamide], the concentration for half-maximal inhibition (IC50) under setting [1] lay within 1000 to 5000 nM.

For the compound `NCC1CCN(c2ccc(N)cc2NC(=O)c2ncc[nH]2)CC1` [Compound 3, N-[5-amino-2-[4-(aminomethyl)-1-piperidinyl]phenyl]-1H-imidazole-2-carboxamide], the IC50 under setting [1] lay in the range of 251 to 1000 nM.

Consider `N[C@@H]1CCCN(c2c(F)cccc2NC(=O)c2nc(-c3cnn(Cc4ccccc4)c3)c[nH]2)C1` [Compound 4, N-[2-(3(R)-amino-1-piperidinyl)-3-fluorophenyl]-4-[1-(phenylmethyl)-1H-pyrazol-4-yl]-1H-imidazole-2-carboxamide], for which the IC50 under setting [1] fell in the range of 51 to 250 nM.

With `N[C@@H]1CCCN(c2c(F)cccc2NC(=O)c2nc(-c3cnn(Cc4cccs4)c3)c[nH]2)C1` [Compound 5, N-[2-(3(R)-amino-1-piperidinyl)-3-fluorophenyl]-4-[1-(2-thienylmethyl)-1H-pyrazol-4-yl]-1H-imidazole-2-carboxamide], under setting [1], the IC50 fell in the range of 51 to 250 nM.

As for `CN(C)CCOc1ccccc1NC(=O)c1nc(-c2cnn(Cc3ccccc3)c2)c[nH]1` [Compound 6, N-[2-[2-(dimethylamino)ethoxy]phenyl]-4-[1-(phenylmethyl)-1H-pyrazol-4-yl]-1H-imidazole-2-carboxamide], under setting [1], the half-maximal inhibitory concentration (IC50) lay within 1000 to 5000 nM.

For the compound `N[C@@H]1CCCN(c2c(F)cccc2NC(=O)c2nc(-c3cnn(Cc4ccccn4)c3)c[nH]2)C1` [Compound 7, N-[2-(3(R)-amino-1-piperidinyl)-3-fluorophenyl]-4-[1-(2-pyridinylmethyl)-1H-pyrazol-4-yl]-1H-imidazole-2-carboxamide], the IC50 under setting [1] was in the range of 1000 to 5000 nM.

As for `Cc1cc(-c2c[nH]c(C(=O)Nc3cccc(F)c3N3CCC[C@@H](N)C3)n2)ccn1` [Compound 8, N-[2-(3(R)-amino-1-piperidinyl)-3-fluorophenyl]-4-(2-methyl-4-pyridinyl)-1H-imidazole-2-carboxamide], the 50% inhibitory concentration (IC50) under setting [1] lay within 1 to 50 nM.

As to `N[C@@H]1CCCN(c2c(F)cccc2NC(=O)c2nc(-c3cncc(C(F)(F)F)c3)c[nH]2)C1` [Compound 9, N-[2-(3(R)-amino-1-piperidinyl)-3-fluorophenyl]-4-[5-(trifluoromethyl)-3-pyridinyl]-1H-imidazole-2-carboxamide], the half-inhibitory concentration (IC50) under setting [1] was in the range of 1000 to 5000 nM.

In the case of `N[C@@H]1CCCN(c2c(F)cccc2NC(=O)c2nc(-c3ccncc3)c[nH]2)C1` [Compound 10, N-[2-(3(R)-amino-1-piperidinyl)-3-fluorophenyl]-4-(4-pyridinyl)-1H-imidazole-2-carboxamide], the IC50 under setting [1] lay within 251 to 1000 nM.

Consider `N[C@@H]1CCCN(c2c(F)cccc2NC(=O)c2nc(-c3cn[nH]c3)c[nH]2)C1` [Compound 11, N-[2-(3(R)-amino-1-piperidinyl)-3-fluorophenyl]-4-(1H-pyrazol-4-yl)-1H-imidazole-2-carboxamide], for which the IC50 under setting [1] was in the range of 51 to 250 nM.

For the compound `N[C@@H]1CCCN(c2c(F)cccc2NC(=O)c2nc(Br)c[nH]2)C1` [Compound 12, N-[2-(3(R)-amino-1-piperidinyl)-3-fluorophenyl]-4-bromo-1H-imidazole-2-carboxamide], under setting [1], the 50% inhibitory concentration (IC50) lay within 51 to 250 nM.

For `N[C@@H]1CCCN(c2c(F)cccc2NC(=O)c2nc(-c3cnn(Cc4cccnc4)c3)c[nH]2)C1` [Compound 13, N-[2-(3(R)-amino-1-piperidinyl)-3-fluorophenyl]-4-[1-(3-pyridinylmethyl)-1H-pyrazol-4-yl]-1H-imidazole-2-carboxamide], the half-inhibitory concentration (IC50) under setting [1] is 51 to 250 nM.

With `Cn1cc(-c2c[nH]c(C(=O)Nc3cccc(F)c3N3CCC[C@@H](N)C3)n2)cn1` [Compound 14, N-[2-(3(R)-amino-1-piperidinyl)-3-fluorophenyl]-4-(1-methyl-1H-pyrazol-4-yl)-1H-imidazole-2-carboxamide], under setting [1], the concentration for half-maximal inhibition (IC50) was 251 to 1000 nM.

`NC(=O)N[C@@H]1CCCN(c2c(F)cccc2NC(=O)c2nc(Br)c[nH]2)C1` [Compound 15, N-[2-[3(R)-[(aminocarbonyl)amino]-1-piperidinyl]-3-fluorophenyl]-4-bromo-1H-imidazole-2-carboxamide]: the IC50 under setting [1] was in the range of 1000 to 5000 nM.
